Test results as given in patent US20180028473A1, “NUTRIENTS SOLUTIONS” (Mitochondrial Substrate Invention Ltd., priority 2014, published 2018).

Experiments:
[1] = tested on: Cognitively healthy young adult male Wistar rats; assay: Passive avoidance test, scopolamine given 7 days after end of supplementation; format: in vivo, rat
Method: Cognitively healthy young adult male Wistar rats weighing 260-280 g were randomly ascribed to groups and supplemented daily with aqueous solution of 5 mg/kg of compound of formula (I) in water of the invention for seven consecutive days. Then, after the break in the supplementation for next seven days, scopolamine 1 mg/kg i.p. or vehicle was administered (at day 14) 30 min before the acquisition trial in the passive avoidance test (“Compound (I)+Scopolamine” group). In “Vehicle+Vehicle” group, rats received vehicle for seven consecutive days and then vehicle 30 min before the acquisition trial in the passive avoidance test at 14th day. In “Vehicle+Scopolamine” group, rats received vehicle for seven consecutive days and then scopolamine 1 mg/kg i.p. 30 min before the acquisition trial in the passive avoidance test at 14th day. […] Passive avoidance test requires the rats to behave contrary to their innate tendencies for preference of dark areas and avoidance of bright ones. The apparatus used in this test is composed by a dark compartment and a bright compartment. The latency to enter the dark chamber was measured using 300 s maximum trial duration. In the acquisition trial, the animal received a 0.4 mA electric shock for 3 s when entering the dark chamber. Retention trial was performed 24 h after the acquisition trial. […]

[2] = in vivo; cited from earlier work

C[N+](C)(C)CCO [compound of formula (I), choline succinate (2:1)]
Relative risk of disturbance of cognitive function ([1]; as compared to Vehicle+Scopolamine group): 0.51 | Rate of disturbance of cognitive function (latency <207 s) ([1]; retention trial, scopolamine 1 mg/kg i.p.): 0.36 | elimination half-life [2]: less than 1.2 h
